The source made the active and inactive calls. The calls are words filed in the database; no cut-off is given here.
Key:
[1] = molecular target: T1, Nuclear factor NF-kappa-B complex (Homo sapiens) (UniProt Q00653+P19838+Q04206); experiment: Inhibition of NFkappaB signaling pathway in LPS-induced human THP-1 cells assessed as reduction in IkappaBalpha phosphorylation by Western blot analysis; assay type: cell-based
THP-1 = experiment: Anti-inflammatory activity against LPS-induced human THP-1 cells assessed as reduction in iNOS protein expression by Western blot analysis; assay type: functional, cell-based; conditions: dose 20-80 µM
RAW264.7 [2] = experiment: Anti-inflammatory activity against mouse RAW264.7 cells assessed as inhibition of LPS-induced NO production at 80 uM pre-incubated for 1 hr followed by compound addition and measured after 18 hrs by Griess reagent based analysis; assay type: functional, cell-based; conditions: time 19.0 hrs
[3] = molecular target: T1, Nuclear factor NF-kappa-B complex (Homo sapiens); experiment: Inhibition of NFkappaB signaling pathway in LPS-induced human THP-1 cells assessed as reduction in p65 phosphorylation by Western blot analysis; assay type: cell-based
RAW264.7 [4] = experiment: Anti-inflammatory activity against mouse RAW264.7 cells assessed as reduction in LPS-induced NO production pre-incubated for 1 hr followed by compound addition and measured after 18 hrs by Griess reagent based analysis; assay type: functional, cell-based; conditions: dose 5-80 µM, time 19.0 hrs
RAW264.7 [5] = experiment: Cytotoxicity against mouse RAW264.7 cells assessed as reduction in cell viability upto 80 uM measured after 24 hrs by MTT assay; assay type: toxicity, cell-based; conditions: raw264.7, 24 h
[6] = molecular target: T1, Nuclear factor NF-kappa-B complex (Homo sapiens); experiment: Inhibition of NFkappaB signaling pathway in LPS-induced human THP-1 cells assessed as reduction in IKKalpha/beta phosphorylation by Western blot analysis; assay type: cell-based

T1 sequence (P19838 whole entry, looked up): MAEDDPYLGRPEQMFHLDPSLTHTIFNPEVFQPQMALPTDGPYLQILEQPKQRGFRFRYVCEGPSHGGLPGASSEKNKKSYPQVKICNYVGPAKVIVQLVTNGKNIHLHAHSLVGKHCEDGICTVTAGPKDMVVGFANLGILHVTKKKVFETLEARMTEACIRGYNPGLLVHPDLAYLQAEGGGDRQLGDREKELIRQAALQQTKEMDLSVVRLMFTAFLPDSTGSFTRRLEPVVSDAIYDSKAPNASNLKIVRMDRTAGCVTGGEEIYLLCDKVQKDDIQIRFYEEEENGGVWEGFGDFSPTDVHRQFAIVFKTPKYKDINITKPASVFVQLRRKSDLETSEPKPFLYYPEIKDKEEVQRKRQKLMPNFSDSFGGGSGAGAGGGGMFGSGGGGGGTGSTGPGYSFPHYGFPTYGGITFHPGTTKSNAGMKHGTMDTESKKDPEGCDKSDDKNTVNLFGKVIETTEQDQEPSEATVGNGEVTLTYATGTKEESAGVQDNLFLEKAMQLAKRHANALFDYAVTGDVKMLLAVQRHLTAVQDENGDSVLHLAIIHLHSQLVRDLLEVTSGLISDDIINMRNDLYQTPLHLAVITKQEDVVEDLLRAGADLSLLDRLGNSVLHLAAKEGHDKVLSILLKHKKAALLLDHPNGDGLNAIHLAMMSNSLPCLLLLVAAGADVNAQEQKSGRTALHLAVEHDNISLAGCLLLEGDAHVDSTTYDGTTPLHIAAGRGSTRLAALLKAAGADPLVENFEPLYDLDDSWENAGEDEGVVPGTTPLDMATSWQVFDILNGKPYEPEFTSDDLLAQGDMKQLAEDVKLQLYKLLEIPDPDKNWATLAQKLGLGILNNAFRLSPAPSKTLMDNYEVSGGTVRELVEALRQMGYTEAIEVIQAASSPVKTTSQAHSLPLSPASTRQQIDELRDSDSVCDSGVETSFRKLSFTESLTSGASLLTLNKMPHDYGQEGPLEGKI
T1 sequence (Q00653 whole entry, looked up): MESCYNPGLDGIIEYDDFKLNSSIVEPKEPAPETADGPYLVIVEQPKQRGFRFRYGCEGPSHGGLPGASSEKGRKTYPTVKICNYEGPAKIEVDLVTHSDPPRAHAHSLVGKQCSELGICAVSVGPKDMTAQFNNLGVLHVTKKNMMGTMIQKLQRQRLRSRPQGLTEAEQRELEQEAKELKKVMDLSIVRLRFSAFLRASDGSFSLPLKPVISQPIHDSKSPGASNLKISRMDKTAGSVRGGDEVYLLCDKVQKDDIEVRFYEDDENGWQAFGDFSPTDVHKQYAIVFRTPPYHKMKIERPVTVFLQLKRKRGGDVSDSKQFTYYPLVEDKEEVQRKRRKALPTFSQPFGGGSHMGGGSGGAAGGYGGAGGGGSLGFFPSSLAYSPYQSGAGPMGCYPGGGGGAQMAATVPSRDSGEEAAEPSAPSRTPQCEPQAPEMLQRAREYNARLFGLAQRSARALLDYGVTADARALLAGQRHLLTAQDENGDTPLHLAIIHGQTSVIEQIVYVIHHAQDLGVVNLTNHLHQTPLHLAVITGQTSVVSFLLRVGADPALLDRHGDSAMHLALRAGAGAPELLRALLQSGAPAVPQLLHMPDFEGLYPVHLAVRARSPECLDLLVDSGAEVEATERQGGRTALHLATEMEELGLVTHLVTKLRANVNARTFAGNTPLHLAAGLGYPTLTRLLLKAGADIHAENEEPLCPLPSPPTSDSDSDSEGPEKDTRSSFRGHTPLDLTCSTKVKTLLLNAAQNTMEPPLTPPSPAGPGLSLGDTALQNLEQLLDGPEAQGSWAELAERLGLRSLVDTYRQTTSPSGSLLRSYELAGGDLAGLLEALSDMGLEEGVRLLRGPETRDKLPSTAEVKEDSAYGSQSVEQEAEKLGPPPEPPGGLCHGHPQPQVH
T1 sequence (Q04206 whole entry, looked up): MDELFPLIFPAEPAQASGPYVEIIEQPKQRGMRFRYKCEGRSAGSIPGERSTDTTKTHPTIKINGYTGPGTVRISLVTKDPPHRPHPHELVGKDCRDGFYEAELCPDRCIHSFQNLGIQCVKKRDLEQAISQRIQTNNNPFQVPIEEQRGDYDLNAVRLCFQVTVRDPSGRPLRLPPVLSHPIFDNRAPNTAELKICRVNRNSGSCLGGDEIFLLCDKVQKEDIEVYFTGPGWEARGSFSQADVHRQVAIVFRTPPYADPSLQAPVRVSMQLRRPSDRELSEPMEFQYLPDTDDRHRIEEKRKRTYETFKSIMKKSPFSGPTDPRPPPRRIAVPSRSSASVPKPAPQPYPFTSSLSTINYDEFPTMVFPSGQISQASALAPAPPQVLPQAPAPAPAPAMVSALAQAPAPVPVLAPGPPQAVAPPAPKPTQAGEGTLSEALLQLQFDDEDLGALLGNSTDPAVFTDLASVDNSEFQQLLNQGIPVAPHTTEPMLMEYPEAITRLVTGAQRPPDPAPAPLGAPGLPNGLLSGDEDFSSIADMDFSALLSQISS

C[C@](O)(CO)[C@@H]1CC[C@@](C)([C@@H]2CC=C(C(=O)O)CC2)O1
inhibition [1]: Active | Activity (THP-1): Dose-Dependent Effect | Activity (RAW264.7 [2]): Active | inhibition [3]: Active | Activity (RAW264.7 [4]): Dose-Dependent Effect | Activity (RAW264.7 [5]): Non-Toxic | inhibition [6]: Active

From ChEMBL document CHEMBL5325450, “Bisabolane-Type Sesquiterpenoids with a Tetrahydrofuran or Tetrahydropyran Ring from Vernonia solanifolia” (J Nat Prod, 2023)
